Data published in PMC11905336, “Pyrrole‐Tethered Bisbenzoxazole Derivatives: Apoptosis‐Inducing Agents Targeting Breast Cancer Cells” (Chemical Biology & Drug Design, 2025).
Where two headings read alike, the source gives them in different places.

Experiments:
MCF‐7 cell lines = experiment: MTT assay, cytotoxicity on MCF-7 cells; type: cell-based, human; details: Homo sapiens, MTT
Description: The cytotoxic effects of PTB derivatives on MCF‐7 breast cancer cells were evaluated using the MTT assay at various concentrations (100 nM, 1 μM, 10 μM, 50 μM, and 100 μM).
(§1) The human dermal fibroblast (HDFa) and human breast cancer cells (MCF‐7) were obtained from the American Type Culture Collection (ATCC; Manassas, VA, USA). Cells were cultured in RPMI medium (MCF‐7) and DMEM medium (HDFa) was supplemented with 10% FBS, 1% penicillin–streptomycin, 1% amphotericin, and 2.5% L‐glutamine at 37°C in a 5% CO2 incubator.
MTT Method. The MTT method is used to detect and quantify living organisms cultured with the method colorimetrically. This method relies on intact mitochondria cleaving the tetrazolium ring of the MTT dye. The MTT substance is absorbed and reduced to a colorful, water‐insoluble formazan by a mitochondria‐dependent reaction. Cell viability is measured based on the MTT reduction property, and the density of dye obtained from MTT analysis indicates the number of viable cells. In this study, cell viability was assessed using the MTT (0.5 mg/mL) solution that was added to each well. […] After adding properties to cultures, they were kept at 37°C for 24 h and overnight. Then, at 48 and 72 h after applying the molecules, 10 μL of MTT was added to each well and incubated under similar conditions for 4 h. Absorbance spectrophotometry was performed at a wavelength of 570 nm using the IC50 = [(control absorbents‐sample absorbents)/control absorbents] × 100 calculation method (Khorsandi et al. [2017]).

HDFa cell lines = experiment: Cytotoxicity on healthy dermal fibroblasts (MTT / xCELLigence real-time cell analysis); type: cell-based; details: Homo sapiens
Description: The cytotoxicity of these derivatives was also assessed in dermal fibroblast cells using xCELLigence analysis as detailed in the Supporting Information.
as §1
xCELLigence Real‐Time Cell Analysis. The xCELLigence system (Real‐Time Cell Analyzer (RTCA) Dual Plate (DP) (Roche Diagnostics GmbH, Penzberg)) was used for real‐time monitoring of cell viability without the need for labeling. A total of 1 × 10^4 HDFa cells were seeded into each well of the E‐plate, and the cell proliferation curve was monitored for 24 h. […] The Cell Index (CI) value was automatically measured every hour for each well using RTCA Software (version 1.2.1) (Yetkin et al. [2021]; Yıldırım et al. [2022]).

[1] = MCF7, read-out: IC50 (μM) for MCF‐7 cell lines, 48 h
[2] = MCF7, 24 h, read-out: IC50 (μM) for MCF‐7 cell lines, 24 h
[3] = MCF7, 72 h, read-out: IC50 (μM) for MCF‐7 cell lines, 72 h
[4] = 24 h, values greater than 100 not calculated, read-out: IC50 (μM) for HDFa cell lines, 24 h
[5] = 72 h, values greater than 100 not calculated, read-out: IC50 (μM) for HDFa cell lines, 72 h
[6] = read-out: IC50 (μM) for HDFa cell lines, 48 h, values greater than 100 not calculated

SMILES	IC50 (MCF‐7 cell lines; [1]) [µM]	IC50 (MCF‐7 cell lines; [2]) [µM]	IC50 (MCF‐7 cell lines; [3]) [µM]	IC50 (HDFa cell lines; [4]) [µM]	IC50 (HDFa cell lines; [5]) [µM]	IC50 (HDFa cell lines; [6]) [µM]
c1ccc2oc(-c3ccc(-c4nc5ccccc5o4)[nH]3)nc2c1 [Compound B1, 2,5‐Bis(Benzo[d]Oxazol‐2‐Yl)‐1H‐Pyrrole]	2.96 ± 1.02	3.89 ± 1.15	3.13 ± 1.12	89.4 ± 1.23	≥ 100	89.93 ± 0.43
Cc1ccc2oc(-c3ccc(-c4nc5cc(C)ccc5o4)[nH]3)nc2c1 [Compound B2, 2,5‐Bis(5‐Methylbenzo[d]Oxazol‐2‐Yl)‐1H‐Pyrrole]	4.5 ± 0.23	4.6 ± 2.2	2.06 ± 1.67	96.3 ± 1.03	99.3 ± 1.03	94.3 ± 1.56
Cc1ccc2nc(-c3ccc(-c4nc5ccc(C)cc5o4)[nH]3)oc2c1 [Compound B3, 2,5‐Bis(6‐Methylbenzo[d]Oxazol‐2‐Yl)‐1H‐Pyrrole]	4.38 ± 0.98	3.3 ± 1.96	3.53 ± 0.65	≥ 100	≥ 100	≥ 100
COc1ccc2oc(-c3ccc(-c4nc5cc(OC)ccc5o4)[nH]3)nc2c1 [Compound B4, 2,5‐Bis(5‐Methoxybenzo[d]Oxazol‐2‐Yl)‐1H‐Pyrrole]	4.19 ± 1.86	4.56 ± 1.56	3.11 ± 0.56	97.3 ± 1.34	≥ 100	99.23 ± 0.32
Clc1ccc2oc(-c3ccc(-c4nc5cc(Cl)ccc5o4)[nH]3)nc2c1 [Compound B5, 2,5‐Bis(5‐Chlorobenzo[d]Oxazol‐2‐Yl)‐1H‐Pyrrole]	2.69 ± 2.01	3.73 ± 1.05	3.28 ± 1.32	95.3 ± 1.92	≥ 100	97.5 ± 2.93
Cc1ccc2oc(-c3ccc(-c4nc5ccccc5o4)[nH]3)nc2c1 [Compound B6, 2‐(5‐(Benzo[d]Oxazol‐2‐Yl)‐1H‐Pyrrol‐2‐Yl)‐5‐Methylbenzo[d]Oxazole]	3.09 ± 1.23	2.81 ± 0.76	3.02 ± 0.89	98.5 ± 1.02	99.1 ± 1.73	99 ± 1.76
Cc1ccc2nc(-c3ccc(-c4nc5ccccc5o4)[nH]3)oc2c1 [Compound B7, 2‐(5‐(Benzo[d]Oxazol‐2‐Yl)‐1H‐Pyrrol‐2‐Yl)‐6‐Methylbenzo[d]Oxazole]	4.68 ± 0.98	4.08 ± 1.23	2.53 ± 1.82	97.3 ± 1.06	100 ± 1.03	98.5 ± 2
Clc1ccc2oc(-c3ccc(-c4nc5ccccc5o4)[nH]3)nc2c1 [Compound B9, 2‐(5‐(Benzo[d]Oxazol‐2‐Yl)‐1H‐Pyrrol‐2‐Yl)‐5‐Chlorobenzo[d]Oxazole]	3.23 ± 0.63	3.84 ± 1.12	2.77 ± 1.23	95.4 ± 1.29	101 ± 1.38	97.5 ± 1.99
COC(=O)c1ccc2nc(-c3ccc(-c4nc5ccccc5o4)[nH]3)oc2c1 [Compound B10, Methyl 2‐(5‐(Benzo[d]Oxazol‐2‐Yl)‐1H‐Pyrrol‐2‐Yl)benzo[d]Oxazole‐6‐Carboxylate]	2.88 ± 0.45	3.66 ± 1.34	2.44 ± 2.11	97.2 ± 1.76	99.9 ± 1.65	99.3 ± 1.34
Cc1ccc2oc(-c3ccc(-c4nc5ccc(C)cc5o4)[nH]3)nc2c1 [Compound B11, 6‐Methyl‐2‐(5‐(5‐Methylbenzo[d]Oxazol‐2‐Yl)‐1H‐Pyrrol‐2‐Yl)benzo[d]Oxazole]	3.49 ± 0.68	4.55 ± 0.09	2.44 ± 1.19	95.3 ± 1.65	99.4 ± 1.23	97.4 ± 1.47
COc1ccc2oc(-c3ccc(-c4nc5cc(C)ccc5o4)[nH]3)nc2c1 [Compound B12, 5‐Methoxy‐2‐(5‐(5‐Methylbenzo[d]Oxazol‐2‐Yl)‐1H‐Pyrrol‐2‐Yl)benzo[d]Oxazole]	3.49 ± 0.46	3.88 ± 0.23	3.11 ± 0.87	≥ 100	≥ 100	≥ 100
Cc1ccc2oc(-c3ccc(-c4nc5cc(Cl)ccc5o4)[nH]3)nc2c1 [Compound B13, 5‐Chloro‐2‐(5‐(5‐Methylbenzo[d]Oxazol‐2‐Yl)‐1H‐Pyrrol‐2‐Yl)benzo[d]Oxazole]	3.6 ± 0.56	3.43 ± 1.56	3.28 ± 1.36	≥ 100	≥ 100	≥ 100
COc1ccc2oc(-c3ccc(-c4nc5ccc(C)cc5o4)[nH]3)nc2c1 [Compound B15, 5‐Methoxy‐2‐(5‐(6‐Methylbenzo[d]Oxazol‐2‐Yl)‐1H‐Pyrrol‐2‐Yl)benzo[d]Oxazole]	8.09 ± 2.06	2.49 ± 1.64	2.53 ± 1.56	≥ 100	≥ 100	≥ 100
COC(=O)c1ccc2nc(-c3ccc(-c4nc5ccc(C)cc5o4)[nH]3)oc2c1 [Compound B16, Methyl 2‐(5‐(6‐Methylbenzo[d]Oxazol‐2‐Yl)‐1H‐Pyrrol‐2‐Yl)benzo[d]Oxazole‐6‐Carboxylate]	2.82 ± 2.14	3.03 ± 1.35	2.93 ± 1.02	95.3 ± 1.03	99.3 ± 1.07	97.3 ± 1.09
COc1ccc2oc(-c3ccc(-c4nc5cc(Cl)ccc5o4)[nH]3)nc2c1 [Compound B17, 5‐Chloro‐2‐(5‐(5‐Methoxybenzo[d]Oxazol‐2‐Yl)‐1H‐Pyrrol‐2‐Yl)benzo[d]Oxazole]	3.44 ± 1.12	3.7 ± 1.12	3.03 ± 0.76	98.3 ± 1.57	99 ± 1	99 ± 1.96
Cc1ccc2nc(-c3ccc(-c4nc5cc(Cl)ccc5o4)[nH]3)oc2c1 [Compound B19, 5‐Chloro‐2‐(5‐(6‐Methylbenzo[d]Oxazol‐2‐Yl)‐1H‐Pyrrol‐2‐Yl)benzo[d]Oxazole]	2.97 ± 1.12	2.83 ± 0.87	3.42 ± 1.12	97.3 ± 1.34	99.82 ± 0.89	97.3 ± 1.2
COC(=O)c1ccc2nc(-c3ccc(-c4nc5cc(Cl)ccc5o4)[nH]3)oc2c1 [Compound B20, Methyl 2‐(5‐(5‐Chlorobenzo[d]Oxazol‐2‐Yl)‐1H‐Pyrrol‐2‐Yl)benzo[d]Oxazole‐6‐Carboxylate]	3.25 ± 0.97	2.97 ± 1.13	3.07 ± 2.96	95.4 ± 1.94	≥ 100	97.3 ± 1.43
